Where “and” joins values, the source holds several entries; their conditions need not be identical. Equal values may be shown once.

Experiment [1] deals with T1, PTP1B (Homo sapiens, UniProt P18031).
T1 sequence (P18031 1-435): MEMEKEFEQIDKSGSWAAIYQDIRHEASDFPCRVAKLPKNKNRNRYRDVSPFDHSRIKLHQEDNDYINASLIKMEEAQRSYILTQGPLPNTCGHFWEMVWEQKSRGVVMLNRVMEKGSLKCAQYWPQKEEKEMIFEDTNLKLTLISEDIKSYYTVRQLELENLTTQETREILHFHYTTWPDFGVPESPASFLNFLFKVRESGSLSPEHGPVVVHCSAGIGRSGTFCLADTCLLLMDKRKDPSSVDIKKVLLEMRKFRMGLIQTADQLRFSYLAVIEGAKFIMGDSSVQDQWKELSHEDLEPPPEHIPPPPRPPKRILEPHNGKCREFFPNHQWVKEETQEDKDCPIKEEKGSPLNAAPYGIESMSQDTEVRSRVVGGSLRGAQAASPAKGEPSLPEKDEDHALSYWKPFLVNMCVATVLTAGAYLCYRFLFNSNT
Put plainly: PTP1B inhibitory assay (p-NPP substrate). The experiment is classed as biochemical. Particulars: absorbance at 405 nm, mean ± SD, three independent experiments, read-out: IC50 against PTP1B. The protocol:
The p-nitrophenyl phosphate (p-NPP) was used as a substrate to evaluate enzyme inhibition assays, following a previously established protocol. The final assay volume was 100 μL. The 75 μL reaction buffer containing 50 mM HEPES, 100 mM NaCl, 1 mM EDTA, and 1 mM dithiothreitol, 10 μL protein, and 5 μL sample were added to a 96-well plate and incubated at room temperature for 15 min. Subsequently, 10 μL of reaction buffer containing p-NPP was added to the reaction system. Sodium orthovanadate (Na₃VO₄) and dimethyl sulfoxide (DMSO) were used as the positive and negative controls, respectively. Enzymatic activity was determined by measuring absorbance at 405 nm. The half-maximal inhibitory concentration (IC₅₀) values were obtained from three independent experiments. The percentage of inhibition was calculated using the following equation: ODcontrol-ODblank-ODcompound-ODblank/ODcontrol-ODblank×100%

Experiment [2] deals with T1, PTP1B. Put plainly: Inhibition kinetic analysis (Lineweaver–Burk). Format: biochemical. Conditions: for Type of inhibition of PTP1B: Lineweaver–Burk double-reciprocal plot; for Vmax in presence of compound: p-NPP substrate, increasing inhibitor concentration. The protocol: The experimental procedure followed that described in the enzyme inhibition assay. The data were represented using Lineweaver–Burk double-reciprocal plots. The inhibition constants (Ki and Kis) were determined from the secondary plots of the slopes and intercepts derived from the Lineweaver–Burk plots.

Usually IC50 stands for the point on the concentration scale where inhibition reaches its midpoint. In the case of `CC1Cc2c3c(c(Cl)c(O)c2C(=O)O1)OC1(C)CCC2(O)OC4(C(C)(C)O)CCC2(C)C1(C3)O4` (stereo not drawn) [Compound 6, talarine P], at PTP1B [1], the IC50 was determined as 14.3 ± 0.86 µM.

`CC1Cc2c3c(cc(O)c2C(=O)O1)OC1(C)CCC(=O)C2(C)CC=C(C(C)(C)O)OC12C3` (stereo not drawn) [Compound 2, talarine L]: the IC50 on PTP1B [1] amounted to 1.74 ± 3.81 µM. At PTP1B [2], the “Type of inhibition of PTP1B” value is “competitive inhibitors” and the “Vmax in presence of compound” value is recorded as “unchanged”. For `COC1(C(C)C)CCC2(C)C(=O)CCC3(C)Oc4cc(O)c5c(c4CC32O1)C(OC(C)=O)C(C)OC5=O` (stereo not drawn) [Compound 4, talarine N], the IC50 at PTP1B [1] is 8.54 ± 1.52 µM. Same read-out and setting: the figure for `CC1OC(=O)c2c(O)c(Cl)c3c(c2C1O)CC12OC4(O)CCC1(C)C(O)(CCC2(C)O3)C4(C)C` (stereo not drawn) [Compound 7, talarine Q] is 15.6 ± 1.6 µM; for `CC(=O)OC1c2c3c(c(Cl)c(O)c2C(=O)OC1C)OC1(C)CCC2(O)OC4(C(C)(C)O)CCC2(C)C1(C3)O4` (stereo not drawn) [Compound 5, talarine O] it is 6.57 ± 1.47 µM; for `CC1Cc2c3c(cc(O)c2C(=O)O1)OC1(C)CCC(O)C2(C)CCC(=O)OC12C3` (stereo not drawn) [Compound 1, talarine K] it is 16.5 ± 0.6 µM. The same measure, in the same setting: the figure for `COC1(C(C)C)CCC2(C)C(=O)CCC3(C)Oc4c(Cl)c(O)c5c(c4CC32O1)CC(C)OC5=O` (stereo not drawn) [Compound 3, talarine M] is 8.54 µM and 17.6 µM.

Consider `CC(=O)O[C@@H]1c2c3c(cc(O)c2C(=O)O[C@@H]1C)O[C@]1(C)CCC(=O)[C@]2(C)CC=C(C(C)C)O[C@]12C3` [Compound 12, talaromyolide J], for which the IC50 on PTP1B [1] came out at 3.03 ± 2.25 µM. On PTP1B [2], the “Type of inhibition of PTP1B” value is listed as “competitive inhibitors” and the “Vmax in presence of compound” value is given as “unchanged”.

The values above are taken from paper PMC12274187, “Novel polycyclic meroterpenoids with protein tyrosine phosphatase 1B inhibitory activity isolated from desert-derived fungi Talaromyces sp. HMT-8” (Natural Products and Bioprospecting, 2025).
